Assay [1] has as its system Rattus norvegicus. In words: % inhibition of acetic acid-induced writhing in rat at 30 mg/kg peroral dose, 360 min postdose(5 rats per compound at each time). The conditions noted are these: 6 h, route oral. The format is functional.
The subject of assay [2] is Rattus norvegicus. In words: % inhibition of acetic acid-induced writhing in rat at 30 mg/kg peroral dose, 60 min postdose(5 rats per compound at each time). The assay is classed as functional. The conditions noted are these: 1 h, route oral.
The species entered for assay [3] is Rattus norvegicus. In words: Antinociceptive potency against acetic acid -induced writhing in rat (8 rats/dose). The assay is classed as functional. On the technique in general: In writhing tests, fewer writhes than in controls are read as antinociception.
For assay [4], the system named is Rattus norvegicus. The experiment in a line: % inhibition of acetic acid-induced writhing in rat at 30 mg/kg peroral dose, 15 min postdose(5 rats per compound at each time). The format is functional. The conditions noted are these: 0.25 h, route oral.
Assay [5] concerns Rattus norvegicus. The experiment in a line: % inhibition of acetic acid-induced writhing in rat at 30 mg/kg peroral dose, 180 min postdose(5 rats per compound at each time). The assay is classed as functional. The conditions noted are these: 3 h, route oral.
Assay [6] deals with Rattus norvegicus. In words: % inhibition of acetic acid-induced writhing in rat at 30 mg/kg peroral dose, 30 min postdose(5 rats per compound at each time). The assay is classed as functional. The conditions noted are these: 0.5 h, route oral.
The test system of assay [7] is Rattus norvegicus. The experiment in a line: % inhibition of acetic acid-induced writhing in rat at 30 mg/kg peroral dose, 120 min postdose(5 rats per compound at each time). The conditions noted are these: 2 h, route oral. The assay is classed as functional.
The species named for assay [8] is Mus musculus. In words: Antinociceptive potency against phenylquinone (PBQ)-induced writhing in mice (8 mice/dose). The assay is classed as functional.
In assay [9] the test system is Mus musculus. The experiment in a line: Analgesic activity was evaluated in mice by hot plate assay and percent change in foot licking latency was determined at 16 mg/kg i.p. dose. The format is functional. The conditions noted are these: route intraperitoneal. On the technique in general: Hot-plate and tail-flick tests time the reaction to a heat stimulus.
In assay [10] the test system is Mus musculus. The experiment in a line: Analgesic activity was evaluated in mice (10 mice/dose)by tail clip assay and expressed as number of protected animals upon total. Total tested was determined at 5 mg/kg p.o. dose; 5/10. Also noted: dose 5 mg/kg. The format is functional, organism-based.

The values below come from ChEMBL document CHEMBL1128726, “N-substituted oxazolo[5,4-b]pyridin-2(1H)-ones: a new class of non-opiate antinociceptive agents” (J Med Chem, 1995).

The source made the active and inactive calls.

By inhibition in vivo is commonly meant how much of the control response was suppressed. Low readings indicate little suppression, high ones strong suppression. In general, ED50 refers to the dose that gives a 50% effect, or the effect in half of the subjects. With `CC(=O)Oc1ccccc1C(=O)O` [ASPIRIN], the inhibition in vivo at 30 mg/kg in the assay with Rattus norvegicus [1] came to 0%; with Rattus norvegicus [2], 60%; in the assay on Rattus norvegicus [4], 53%; in the assay on Rattus norvegicus [5], 18%; with Rattus norvegicus [6], 37%; with Rattus norvegicus [7], 26%. In addition, the ED50 stood at 32 mg/kg in the assay listed under Rattus norvegicus [3] and 63 mg/kg in the assay listed under Mus musculus [8].

As to `CN1CC[C@]23c4c5ccc(O)c4O[C@H]2[C@@H](O)C=C[C@H]3[C@H]1C5.CN1CC[C@]23c4c5ccc(O)c4O[C@H]2[C@@H](O)C=C[C@H]3[C@H]1C5.O=S(=O)(O)O`, in the assay on Mus musculus [9], the “Change in foot-licking latency” value stood at 283%. In the assay with Mus musculus [10], the “No. of protected animals/total” value is “Partially active”.
